Key:
Assay type in all cases: cell-based
[1] = molecular target: KDR (Homo sapiens (Human), UniProt P35968); assay: KDR autophosphorylation ELISA in HUVEC cells; conditions: cellular, VEGF165 stimulated
Procedure, shortened: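 HUVECs grown 24 h at 37 °C, then serum-starved 24 h, were preincubated 1 h with an 8-point compound series (0.3% DMSO) and stimulated with 100 ng/mL human VEGF165 for 5 min. Phospho-KDR in lysates was measured by sandwich ELISA against a phospho-KDR standard; IC50 from 4-parameter logistic fit.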

[2] = molecular target: AXL (Homo sapiens (Human), UniProt P30530); assay: AXL autophosphorylation ELISA in A-172 cells; conditions: cellular, Gas6 stimulated
Sequence of AXL (P30530 26-894): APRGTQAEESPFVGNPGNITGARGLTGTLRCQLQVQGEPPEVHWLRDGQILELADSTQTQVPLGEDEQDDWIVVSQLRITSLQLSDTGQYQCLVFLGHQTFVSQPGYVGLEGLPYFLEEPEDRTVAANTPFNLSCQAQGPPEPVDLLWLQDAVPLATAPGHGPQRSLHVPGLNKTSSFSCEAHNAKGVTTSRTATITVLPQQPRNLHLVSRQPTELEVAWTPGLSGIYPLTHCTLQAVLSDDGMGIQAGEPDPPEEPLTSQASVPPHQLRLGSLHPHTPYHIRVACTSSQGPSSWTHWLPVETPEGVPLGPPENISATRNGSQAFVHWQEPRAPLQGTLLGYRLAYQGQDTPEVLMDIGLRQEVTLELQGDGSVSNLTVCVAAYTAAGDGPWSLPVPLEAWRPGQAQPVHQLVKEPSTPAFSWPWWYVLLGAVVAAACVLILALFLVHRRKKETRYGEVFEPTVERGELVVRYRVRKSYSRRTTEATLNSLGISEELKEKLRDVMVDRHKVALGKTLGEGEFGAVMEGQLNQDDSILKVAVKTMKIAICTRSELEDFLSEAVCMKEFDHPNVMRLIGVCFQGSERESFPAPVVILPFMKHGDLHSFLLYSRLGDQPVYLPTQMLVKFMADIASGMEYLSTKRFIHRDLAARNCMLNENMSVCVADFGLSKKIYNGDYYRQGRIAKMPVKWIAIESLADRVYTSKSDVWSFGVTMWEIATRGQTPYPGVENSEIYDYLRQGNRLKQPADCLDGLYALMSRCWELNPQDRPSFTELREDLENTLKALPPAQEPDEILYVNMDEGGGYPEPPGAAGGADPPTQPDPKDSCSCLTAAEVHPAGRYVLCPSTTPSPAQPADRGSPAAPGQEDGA
Procedure, shortened: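 Serum-starved (24 h) A-172 glioblastoma cells pretreated 1 h with compounds (8-point curve, 0.3% DMSO), then stimulated 15 min with 1 μg/mL Gas6. Lysate phospho-AXL measured by sandwich ELISA against a phospho-AXL standard; IC50 from 4-parameter logistic fit between DMSO and reference-inhibitor controls.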

[3] = molecular target: Mer (Homo sapiens (Human), UniProt Q12866); assay: Mer autophosphorylation ELISA in transient transfected 293A cells; conditions: cellular, MERTK transfected 293A cells
Sequence of Mer (Q12866 21-999): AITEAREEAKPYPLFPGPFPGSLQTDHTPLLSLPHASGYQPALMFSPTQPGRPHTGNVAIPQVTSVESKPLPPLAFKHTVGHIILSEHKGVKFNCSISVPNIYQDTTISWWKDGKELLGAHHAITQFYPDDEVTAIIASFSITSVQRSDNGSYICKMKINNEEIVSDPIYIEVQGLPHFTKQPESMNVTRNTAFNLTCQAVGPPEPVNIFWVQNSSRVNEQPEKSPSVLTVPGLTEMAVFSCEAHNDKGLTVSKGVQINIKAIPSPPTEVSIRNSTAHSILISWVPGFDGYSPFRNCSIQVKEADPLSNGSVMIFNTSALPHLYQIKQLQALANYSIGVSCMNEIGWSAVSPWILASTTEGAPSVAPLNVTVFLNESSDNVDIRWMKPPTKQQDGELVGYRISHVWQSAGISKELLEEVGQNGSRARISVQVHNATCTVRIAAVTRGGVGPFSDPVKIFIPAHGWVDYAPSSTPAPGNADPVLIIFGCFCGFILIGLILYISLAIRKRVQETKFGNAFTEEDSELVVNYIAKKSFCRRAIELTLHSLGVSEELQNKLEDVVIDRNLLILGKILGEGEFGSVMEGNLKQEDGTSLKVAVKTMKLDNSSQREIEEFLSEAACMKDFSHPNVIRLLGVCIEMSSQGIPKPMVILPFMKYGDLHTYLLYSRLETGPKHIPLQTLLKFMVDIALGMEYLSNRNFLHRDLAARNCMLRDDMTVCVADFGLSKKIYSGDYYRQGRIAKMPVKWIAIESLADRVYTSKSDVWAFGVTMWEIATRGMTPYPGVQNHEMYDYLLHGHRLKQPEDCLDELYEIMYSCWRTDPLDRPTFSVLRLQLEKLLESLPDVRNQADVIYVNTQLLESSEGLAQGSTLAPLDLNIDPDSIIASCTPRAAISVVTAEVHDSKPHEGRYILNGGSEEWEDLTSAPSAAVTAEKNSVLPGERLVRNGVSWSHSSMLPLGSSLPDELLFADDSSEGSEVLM
Procedure, shortened: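 293A cells transiently transfected with human MERTK DNA, then treated 1 h with 8-point compound dilutions in serum-free medium (0.3% DMSO). Phospho-Mer in lysates quantified by sandwich ELISA against phospho-Mer standard; normalised to DMSO (100%) and reference inhibitor (0%), IC50 from 4-parameter logistic fit.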

Sequence of KDR (P35968 20-1356): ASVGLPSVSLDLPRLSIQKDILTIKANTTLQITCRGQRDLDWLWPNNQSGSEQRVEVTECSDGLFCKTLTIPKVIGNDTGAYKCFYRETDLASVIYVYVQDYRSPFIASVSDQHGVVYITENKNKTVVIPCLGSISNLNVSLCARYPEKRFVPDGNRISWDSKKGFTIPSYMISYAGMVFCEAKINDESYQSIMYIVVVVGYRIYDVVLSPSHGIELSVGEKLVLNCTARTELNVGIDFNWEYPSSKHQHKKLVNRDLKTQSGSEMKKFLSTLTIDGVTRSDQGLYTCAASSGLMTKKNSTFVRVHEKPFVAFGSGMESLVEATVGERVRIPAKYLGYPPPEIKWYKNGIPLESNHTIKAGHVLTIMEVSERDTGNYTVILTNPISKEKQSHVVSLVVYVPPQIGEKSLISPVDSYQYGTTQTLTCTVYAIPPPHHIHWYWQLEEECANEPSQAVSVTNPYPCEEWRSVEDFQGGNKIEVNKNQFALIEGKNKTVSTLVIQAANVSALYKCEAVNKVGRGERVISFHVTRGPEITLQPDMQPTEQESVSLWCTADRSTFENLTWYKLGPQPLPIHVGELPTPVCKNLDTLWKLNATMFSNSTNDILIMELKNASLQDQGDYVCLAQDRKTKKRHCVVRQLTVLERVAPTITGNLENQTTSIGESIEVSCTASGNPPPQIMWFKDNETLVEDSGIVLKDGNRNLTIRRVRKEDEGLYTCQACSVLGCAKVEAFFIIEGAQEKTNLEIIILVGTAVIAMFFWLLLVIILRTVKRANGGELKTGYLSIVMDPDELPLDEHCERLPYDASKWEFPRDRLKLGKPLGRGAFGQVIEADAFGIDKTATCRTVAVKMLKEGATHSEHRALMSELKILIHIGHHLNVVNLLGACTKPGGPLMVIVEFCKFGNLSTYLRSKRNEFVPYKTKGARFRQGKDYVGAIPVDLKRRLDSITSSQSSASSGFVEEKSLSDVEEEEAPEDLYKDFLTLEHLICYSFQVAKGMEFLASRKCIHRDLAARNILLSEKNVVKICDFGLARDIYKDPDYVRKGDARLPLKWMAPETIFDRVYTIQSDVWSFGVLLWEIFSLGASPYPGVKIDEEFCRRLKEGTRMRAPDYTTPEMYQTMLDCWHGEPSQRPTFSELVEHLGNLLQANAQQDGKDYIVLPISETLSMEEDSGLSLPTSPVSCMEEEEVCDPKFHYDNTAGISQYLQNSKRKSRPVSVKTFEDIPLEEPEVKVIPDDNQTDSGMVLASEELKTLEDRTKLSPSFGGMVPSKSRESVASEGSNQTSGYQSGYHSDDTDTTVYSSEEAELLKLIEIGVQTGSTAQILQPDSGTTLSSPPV

IC50 [1] [nM]	IC50 [2] [nM]	IC50 [3] [nM]	Compound
≤ 10	≤ 10	≤ 10	CCNC(=O)c1cc2c(Oc3ccc(NC(=O)C4(C(=O)Nc5ccc(F)cc5)CC4)cc3)ccnc2cc1OC [Compound 9, 1-N-[4-[6-(ethylcarbamoyl)-7-methoxyquinolin-4-yl]oxyphenyl]-1-N′-(4-fluorophenyl)cyclopropane-1,1-dicarboxamide]
≤ 10	≤ 10	≤ 10	CNC(=O)c1cc2c(Oc3ccc(NC(=O)C4(C(=O)Nc5ccc(F)cc5)CC4)cc3F)ccnc2cc1OC [Compound 135, 1-N′-[3-fluoro-4-[7-methoxy-6-(methylcarbamoyl)quinolin-4-yl]oxyphenyl]-1-N-(4-fluorophenyl)cyclopropane-1,1-dicarboxamide]
≤ 10	10 to 100	10 to 100	CONC(=O)c1cc2c(Oc3ccc(NC(=O)C4(C(=O)Nc5ccc(F)cc5)CC4)cc3)ccnc2cc1OC [Compound 17, 1-N′-(4-fluorophenyl)-1-N-[4-[7-methoxy-6-(methoxycarbamoyl)quinolin-4-yl]oxyphenyl]cyclopropane-1,1-dicarboxamide]

Reference: patent US11542259B2, “Compounds for the treatment of kinase-dependent disorders” (Exelixis, Inc., priority 2018, dated 2023)
